“And” between values parts separate entries of the source, which are not always exact repeats. Equal values may be shown once. Toxic doses and inconclusive results are not listed. Rule as the data show it: active = T/C of 150% or more; inactive = T/C below 125%.
System: L1210 leukemia ip in BDF1 mice, survival T/C
Experiment: NCI In Vivo Anticancer Drug Screen. Data for tumor model L1210 Leukemia (intraperitoneal) in B6D2F1 (BDF1) mice
Conditions: endpoint: mean survival time, higher = longer survival
Procedure, shortened: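 Read-out is survival time, reported as the treated-group measurement over the vehicle-control measurement.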

[1] = dose: 100.0 mg/kg/injection, schedule: Q01DX009 (ip), vehicle: saline with Tween-80
[2] = dose: 100.0 mg/kg/injection, schedule: Q04DX003 (ip), vehicle: saline with Tween-80
[3] = dose: 200.0 mg/kg/injection, schedule: Q01DX009 (ip), vehicle: saline with Tween-80
[4] = dose: 200.0 mg/kg/injection, schedule: Q04DX003 (ip), vehicle: saline with Tween-80
[5] = dose: 400.0 mg/kg/injection, schedule: Q01DX009 (ip), vehicle: saline with Tween-80
[6] = dose: 400.0 mg/kg/injection, schedule: Q04DX003 (ip), vehicle: saline with Tween-80
[7] = dose: 100.0 mg/kg/injection, schedule: Q01DX009 (ip), vehicle: Klucel (hydroxypropylcellulose) (HPC)
[8] = dose: 100.0 mg/kg/injection, schedule: Q04DX003 (ip), vehicle: Klucel (hydroxypropylcellulose) (HPC)
[9] = dose: 200.0 mg/kg/injection, schedule: Q01DX009 (ip), vehicle: Klucel (hydroxypropylcellulose) (HPC)
[10] = dose: 200.0 mg/kg/injection, schedule: Q04DX003 (ip), vehicle: Klucel (hydroxypropylcellulose) (HPC)
[11] = dose: 400.0 mg/kg/injection, schedule: Q01DX009 (ip), vehicle: Klucel (hydroxypropylcellulose) (HPC)
[12] = dose: 400.0 mg/kg/injection, schedule: Q04DX003 (ip), vehicle: Klucel (hydroxypropylcellulose) (HPC)
[13] = dose: 100.0 mg/kg/injection, schedule: Q01DX001 (ip), vehicle: Klucel (hydroxypropylcellulose) (HPC)
[14] = dose: 200.0 mg/kg/injection, schedule: Q01DX001 (ip), vehicle: Klucel (hydroxypropylcellulose) (HPC)
[15] = dose: 400.0 mg/kg/injection, schedule: Q01DX001 (ip), vehicle: Klucel (hydroxypropylcellulose) (HPC)
[16] = dose: 100.0 mg/kg/injection, schedule: Q04DX002 (ip), vehicle: Klucel (hydroxypropylcellulose) (HPC)
[17] = dose: 200.0 mg/kg/injection, schedule: Q04DX002 (ip), vehicle: Klucel (hydroxypropylcellulose) (HPC)
[18] = dose: 100.0 mg/kg/injection, schedule: Q04DX003 (ip), vehicle: saline
[19] = dose: 200.0 mg/kg/injection, schedule: Q04DX003 (ip), vehicle: saline
[20] = dose: 400.0 mg/kg/injection, schedule: Q04DX003 (ip), vehicle: saline

Measured: T/C

CCCCCCCCCCCCCCCCCCCCCCCCC(O)C(=O)NC(CO)C(O)C(O)CCCCCCCCCCCCCC (stereo unspecified)
inactive: [1] 88 % of control | [2] 87 % of control | [3] 94 % of control | [4] 92 % of control | [5] 88 % of control | [6] 87 % of control

CC(=O)Nc1ccccc1F
inactive: [7] 105 % of control | [8] 101 % of control | [9] 105 % of control | [10] 102 % of control | [11] 103 % of control | [12] 95 % of control

N#CC(/C=C/c1ccccc1)Nc1ccccc1N (stereo unspecified)
inactive: dose: 100.0 mg/kg/injection, schedule: Q01DX001 (ip), vehicle: saline with Tween-80 91 % of control | dose: 200.0 mg/kg/injection, schedule: Q01DX001 (ip), vehicle: saline with Tween-80 94 % of control | dose: 400.0 mg/kg/injection, schedule: Q01DX001 (ip), vehicle: saline with Tween-80 86 % of control

C[N+]1(C)C2CCCC1CC(=O)C2
inactive: dose: 150.0 mg/kg/injection, schedule: Q01DX001 (ip), vehicle: saline 107 % of control

CCCCCC(CN(C)C)C(O)/C=C\c1ccccc1 (stereo unspecified)
inactive: dose: 12.5 mg/kg/injection, schedule: Q01DX009 (sc), vehicle: steriod suspending solution 97 % of control | dose: 12.5 mg/kg/injection, schedule: Q04DX003 (ip), vehicle: other 119 % of control | dose: 25.0 mg/kg/injection, schedule: Q01DX009 (sc), vehicle: steriod suspending solution 98 % of control | dose: 25.0 mg/kg/injection, schedule: Q04DX003 (ip), vehicle: other 106 % of control | dose: 50.0 mg/kg/injection, schedule: Q01DX009 (sc), vehicle: steriod suspending solution 97 % of control | dose: 50.0 mg/kg/injection, schedule: Q04DX003 (ip), vehicle: other 103 % of control

CCCCCCCCCCCC[n+]1ccc2ccccc2c1
inactive: dose: 0.05 mg/kg/injection, schedule: Q01DX001 (ip), vehicle: saline 97 % of control | dose: 0.1 mg/kg/injection, schedule: Q01DX001 (ip), vehicle: saline 105 % of control | dose: 0.2 mg/kg/injection, schedule: Q01DX001 (ip), vehicle: saline 100 % of control | dose: 0.4 mg/kg/injection, schedule: Q01DX001 (ip), vehicle: saline 102 % of control | dose: 0.5 mg/kg/injection, schedule: Q01DX001 (ip), vehicle: saline 106 % of control | dose: 0.8 mg/kg/injection, schedule: Q01DX001 (ip), vehicle: saline 100 % of control | dose: 1.0 mg/kg/injection, schedule: Q01DX001 (ip), vehicle: saline 104 % of control | dose: 2.0 mg/kg/injection, schedule: Q01DX001 (ip), vehicle: carboxymethylcellulose (CMC) 109 % of control | dose: 2.0 mg/kg/injection, schedule: Q01DX001 (ip), vehicle: saline 104 % of control | dose: 4.0 mg/kg/injection, schedule: Q01DX001 (ip), vehicle: carboxymethylcellulose (CMC) 96 % of control and 97 % of control | dose: 4.0 mg/kg/injection, schedule: Q01DX001 (ip), vehicle: saline 103 % of control | dose: 8.0 mg/kg/injection, schedule: Q01DX001 (ip), vehicle: carboxymethylcellulose (CMC) 90 % of control and 91 % of control | dose: 8.0 mg/kg/injection, schedule: Q01DX001 (ip), vehicle: saline 96 % of control | dose: 16.0 mg/kg/injection, schedule: Q01DX001 (ip), vehicle: carboxymethylcellulose (CMC) 102 % of control | dose: 8.0 micrograms/kg/injection, schedule: Q01DX015 (ip), vehicle: saline 88 % of control | dose: 16.0 micrograms/kg/injection, schedule: Q01DX015 (ip), vehicle: saline 92 % of control | dose: 32.0 micrograms/kg/injection, schedule: Q01DX015 (ip), vehicle: saline 96 % of control | dose: 64.0 micrograms/kg/injection, schedule: Q01DX015 (ip), vehicle: saline 91 % of control

COC(=O)C(CCC(=O)O)NC(=O)C(F)(F)F (stereo unspecified)
inactive: [13] 89 % of control | [14] 97 % of control | [15] 89 % of control

CCOC(=O)CSC(=S)N(C)C
inactive: [13] 102 % of control | [7] 95 % of control and 96 % of control and 111 % of control | [16] 102 % of control and 106 % of control | [8] 101 % of control | [14] 102 % of control | [9] 97 % of control and 104 % of control and 89 % of control | [17] 102 % of control and 103 % of control | [10] 93 % of control | [15] 96 % of control | [11] 89 % of control | dose: 400.0 mg/kg/injection, schedule: Q04DX002 (ip), vehicle: Klucel (hydroxypropylcellulose) (HPC) 103 % of control and 104 % of control | [12] 93 % of control

O=C(N/N=C/c1ccc2c(c1)OCO2)C(O)(c1ccccc1)c1ccccc1
inactive: dose: 100.0 mg/kg/injection, schedule: Q01DX001 (ip), vehicle: carboxymethylcellulose (CMC) 106 % of control | dose: 200.0 mg/kg/injection, schedule: Q01DX001 (ip), vehicle: carboxymethylcellulose (CMC) 95 % of control | dose: 400.0 mg/kg/injection, schedule: Q01DX001 (ip), vehicle: carboxymethylcellulose (CMC) 103 % of control

O=[N+]([O-])c1cc([N+](=O)[O-])c(Cl)s1
inactive: dose: 12.5 mg/kg/injection, schedule: Q01DX009 (ip), vehicle: saline with Tween-80 97 % of control | dose: 25.0 mg/kg/injection, schedule: Q01DX009 (ip), vehicle: saline with Tween-80 91 % of control

CN(C)CCCN1c2cc(Cl)ccc2Sc2ccc(Cl)cc21
inactive: [16] 122 % of control | [17] 108 % of control

Cn1c(=O)c2[nH]c(-c3cccs3)nc2n(C)c1=O
inactive: dose: 50.0 mg/kg/injection, schedule: Q01DX001 (ip), vehicle: other 101 % of control | dose: 100.0 mg/kg/injection, schedule: Q01DX001 (ip), vehicle: other 90 % of control | dose: 200.0 mg/kg/injection, schedule: Q01DX001 (ip), vehicle: other 97 % of control | dose: 400.0 mg/kg/injection, schedule: Q01DX001 (ip), vehicle: other 92 % of control

c1ccc2c(c1)C1c3cccc[n+]3C2CC1n1c2ccccc2c2ccccc21 (stereo unspecified)
inactive: dose: 12.5 mg/kg/injection, schedule: Q01DX009 (ip), vehicle: Klucel (hydroxypropylcellulose) (HPC) 106 % of control | dose: 12.5 mg/kg/injection, schedule: Q04DX003 (ip), vehicle: Klucel (hydroxypropylcellulose) (HPC) 111 % of control | dose: 25.0 mg/kg/injection, schedule: Q01DX009 (ip), vehicle: Klucel (hydroxypropylcellulose) (HPC) 106 % of control | dose: 25.0 mg/kg/injection, schedule: Q04DX003 (ip), vehicle: Klucel (hydroxypropylcellulose) (HPC) 106 % of control | dose: 50.0 mg/kg/injection, schedule: Q04DX003 (ip), vehicle: Klucel (hydroxypropylcellulose) (HPC) 91 % of control | [7] 102 % of control | [18] 93 % of control | [9] 94 % of control | [19] 98 % of control | [11] 94 % of control | [20] 94 % of control

ClCCN1CCOCC1
inactive: dose: 25.0 mg/kg/injection, schedule: Q01DX009 (ip), vehicle: saline 97 % of control | dose: 25.0 mg/kg/injection, schedule: Q04DX003 (ip), vehicle: saline 93 % of control and 106 % of control | dose: 50.0 mg/kg/injection, schedule: Q01DX009 (ip), vehicle: saline 100 % of control | dose: 50.0 mg/kg/injection, schedule: Q04DX003 (ip), vehicle: saline 93 % of control and 111 % of control | [18] 98 % of control and 104 % of control and 108 % of control

CCC[N+](C)(C)CC
inactive: dose: 37.5 mg/kg/injection, schedule: Q01DX001 (ip), vehicle: saline 104 % of control | dose: 75.0 mg/kg/injection, schedule: Q01DX001 (ip), vehicle: saline 95 % of control

CC(C)(C)N=C=NC(c1ccccc1)(c1ccccc1)c1ccccc1
inactive: [18] 97 % of control | [19] 94 % of control | [20] 87 % of control

Cc1c(C)c2c(c(C)c1O)SC(CC(=O)O)C(=O)O2 (stereo unspecified)
inactive: [8] 100 % of control | [10] 100 % of control | [12] 100 % of control

c1ccc(Nc2n[n+](-c3ccccc3)no2)cc1
inactive: [1] 106 % of control | [2] 108 % of control | [3] 101 % of control | [4] 100 % of control | [5] 108 % of control | [6] 110 % of control
